Assays:
IgE = settings: cited from earlier work
[1] = tested on: acute DRA induced murine model of asthma; assay: acute DRA induced murine model of asthma; format: in vivo, mouse; settings: 10 mg/kg intraperitoneally on day 10, 12 and 14
Text: B. Experimental Design. DRA triple allergens were delivered via intranasal route as depicted.

Chain of IgE (P01854 1-426 limits assumed): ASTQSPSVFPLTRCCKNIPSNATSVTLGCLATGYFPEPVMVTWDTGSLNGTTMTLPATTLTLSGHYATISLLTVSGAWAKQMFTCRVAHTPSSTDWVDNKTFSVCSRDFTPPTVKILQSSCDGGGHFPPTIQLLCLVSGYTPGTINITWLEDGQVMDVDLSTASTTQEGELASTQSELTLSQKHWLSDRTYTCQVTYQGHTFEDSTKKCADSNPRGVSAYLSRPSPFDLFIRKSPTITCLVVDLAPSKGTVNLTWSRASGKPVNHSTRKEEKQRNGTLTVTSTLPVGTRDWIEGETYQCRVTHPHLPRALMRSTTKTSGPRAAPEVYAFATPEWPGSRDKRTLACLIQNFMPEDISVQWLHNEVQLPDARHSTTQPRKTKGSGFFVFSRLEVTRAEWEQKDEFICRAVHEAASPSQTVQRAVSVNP

Molecule	control of asthma exacerbations (IgE; inner city children already sensitized to cockroach, Busse W W, et al. 2011)	control of seasonal exacerbations (IgE; pre-seasonal treatment, poorly controlled asthmatics, Teach S J, et al. 2015)	Th2 cytokine increase in BAL fluids [1]	allergic lung inflammation (lung pathology) [1]	eosinophil recruitment to BAL fluid [1]	serum IgE rise [1]
omalizumab: a humanized monoclonal anti-IgE antibody	significant benefit	effective				
FC(F)(F)c1ccc(CNc2ccc(Cc3c[nH]c4ncc(Cl)cc34)cn2)cn1 [PLX3397, 5-((5-chloro-1H-pyrrolo[2,3-b]pyridin-3-yl)methyl)-N-((6-(trifluoromethyl)pyridin-3-yl)methyl)pyridin-2-amine]			attenuated	markedly reduced	blocked	attenuated

Reference: patent US20210145983A1, “METHODS AND COMPOSITIONS OF INHIBITING CSF1R FOR TREATING ALLERGIC INFLAMMATION” (THE BOARD OF TRUSTEES OF THE UNIVERSITY OF ILLINOIS, priority 2018, published 2021)
